How the values were obtained:
[1] = biological target: T1, Serine/threonine-protein kinase Nek11 (Homo sapiens) (UniProt Q8NG66); experiment: Inhibition of human NEK11 at 18.6 nM by HotSpot assay relative to control
T1 sequence (whole entry): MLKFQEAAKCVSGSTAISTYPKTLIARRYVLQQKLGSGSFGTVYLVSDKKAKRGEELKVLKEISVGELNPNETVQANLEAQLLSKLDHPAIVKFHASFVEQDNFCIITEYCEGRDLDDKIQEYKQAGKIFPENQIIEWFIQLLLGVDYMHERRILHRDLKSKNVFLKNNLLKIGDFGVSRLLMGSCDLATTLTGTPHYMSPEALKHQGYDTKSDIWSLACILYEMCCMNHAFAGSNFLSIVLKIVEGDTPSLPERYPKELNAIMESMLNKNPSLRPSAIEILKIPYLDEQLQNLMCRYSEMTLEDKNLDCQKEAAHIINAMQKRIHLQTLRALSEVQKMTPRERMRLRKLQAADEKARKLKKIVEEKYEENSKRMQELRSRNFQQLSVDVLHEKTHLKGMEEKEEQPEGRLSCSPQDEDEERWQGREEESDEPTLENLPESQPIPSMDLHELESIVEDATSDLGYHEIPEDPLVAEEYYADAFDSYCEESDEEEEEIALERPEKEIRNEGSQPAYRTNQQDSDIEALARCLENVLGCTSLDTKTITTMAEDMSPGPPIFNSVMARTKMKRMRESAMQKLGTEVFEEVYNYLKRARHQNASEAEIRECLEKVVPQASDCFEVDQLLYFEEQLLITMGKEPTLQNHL

[2] = biological target: Dual specificity protein kinase CLK2 (Homo sapiens) (UniProt P49760); experiment: Inhibition of human CLK2 at 18.6 nM by HotSpot assay relative to control
Chain of Dual specificity protein kinase CLK2 (Homo sapiens) (P49760 whole entry, looked up): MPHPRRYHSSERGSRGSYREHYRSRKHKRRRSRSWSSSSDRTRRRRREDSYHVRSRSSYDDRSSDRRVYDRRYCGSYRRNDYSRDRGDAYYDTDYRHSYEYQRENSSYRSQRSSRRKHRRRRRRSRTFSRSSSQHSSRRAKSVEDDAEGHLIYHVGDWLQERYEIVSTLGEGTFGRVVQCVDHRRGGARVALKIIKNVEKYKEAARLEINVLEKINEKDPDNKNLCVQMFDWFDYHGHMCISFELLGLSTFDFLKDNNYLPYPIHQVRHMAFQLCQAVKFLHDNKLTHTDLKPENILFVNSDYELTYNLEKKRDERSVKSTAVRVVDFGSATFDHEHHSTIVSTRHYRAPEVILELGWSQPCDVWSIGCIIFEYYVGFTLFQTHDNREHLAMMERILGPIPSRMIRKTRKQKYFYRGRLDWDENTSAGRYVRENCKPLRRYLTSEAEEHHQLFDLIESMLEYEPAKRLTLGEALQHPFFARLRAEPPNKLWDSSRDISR

[3] = biological target: Ephrin type-A receptor 5 (Homo sapiens) (UniProt P54756); experiment: Inhibition of human EPHA5 at 18.6 nM by HotSpot assay relative to control
Chain of Ephrin type-A receptor 5 (Homo sapiens) (P54756 whole entry): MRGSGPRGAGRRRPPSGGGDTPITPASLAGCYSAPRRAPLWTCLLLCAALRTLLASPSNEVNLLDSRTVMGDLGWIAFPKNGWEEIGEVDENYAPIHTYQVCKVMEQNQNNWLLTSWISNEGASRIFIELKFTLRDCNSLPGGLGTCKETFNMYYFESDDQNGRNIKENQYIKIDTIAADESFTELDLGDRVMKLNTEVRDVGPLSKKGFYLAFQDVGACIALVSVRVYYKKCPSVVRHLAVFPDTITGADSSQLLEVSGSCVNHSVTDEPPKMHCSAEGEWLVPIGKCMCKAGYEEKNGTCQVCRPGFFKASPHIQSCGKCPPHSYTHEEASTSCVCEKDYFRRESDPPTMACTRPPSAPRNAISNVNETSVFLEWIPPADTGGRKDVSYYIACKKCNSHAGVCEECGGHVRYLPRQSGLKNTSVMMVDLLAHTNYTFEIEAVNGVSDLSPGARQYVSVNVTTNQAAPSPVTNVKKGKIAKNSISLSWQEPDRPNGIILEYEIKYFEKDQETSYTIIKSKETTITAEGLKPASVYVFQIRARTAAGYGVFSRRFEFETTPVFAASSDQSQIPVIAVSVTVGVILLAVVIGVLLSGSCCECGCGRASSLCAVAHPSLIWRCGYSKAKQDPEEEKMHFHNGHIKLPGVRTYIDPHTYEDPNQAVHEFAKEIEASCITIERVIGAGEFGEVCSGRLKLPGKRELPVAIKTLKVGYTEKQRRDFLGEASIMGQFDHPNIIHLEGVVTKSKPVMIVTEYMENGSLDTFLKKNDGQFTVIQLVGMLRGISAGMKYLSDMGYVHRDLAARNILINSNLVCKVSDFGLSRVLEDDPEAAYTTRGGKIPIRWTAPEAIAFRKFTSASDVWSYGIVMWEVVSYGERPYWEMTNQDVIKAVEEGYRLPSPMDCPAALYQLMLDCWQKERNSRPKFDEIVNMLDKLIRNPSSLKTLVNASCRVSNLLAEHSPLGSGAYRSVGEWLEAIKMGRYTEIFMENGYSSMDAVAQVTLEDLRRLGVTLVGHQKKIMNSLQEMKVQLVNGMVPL

[4] = biological target: T2, Tyrosine-protein kinase ZAP-70 (Homo sapiens) (UniProt P43403); experiment: Inhibition of human ZAP70 at 1.82 nM by HotSpot assay relative to control
T2 sequence (whole entry): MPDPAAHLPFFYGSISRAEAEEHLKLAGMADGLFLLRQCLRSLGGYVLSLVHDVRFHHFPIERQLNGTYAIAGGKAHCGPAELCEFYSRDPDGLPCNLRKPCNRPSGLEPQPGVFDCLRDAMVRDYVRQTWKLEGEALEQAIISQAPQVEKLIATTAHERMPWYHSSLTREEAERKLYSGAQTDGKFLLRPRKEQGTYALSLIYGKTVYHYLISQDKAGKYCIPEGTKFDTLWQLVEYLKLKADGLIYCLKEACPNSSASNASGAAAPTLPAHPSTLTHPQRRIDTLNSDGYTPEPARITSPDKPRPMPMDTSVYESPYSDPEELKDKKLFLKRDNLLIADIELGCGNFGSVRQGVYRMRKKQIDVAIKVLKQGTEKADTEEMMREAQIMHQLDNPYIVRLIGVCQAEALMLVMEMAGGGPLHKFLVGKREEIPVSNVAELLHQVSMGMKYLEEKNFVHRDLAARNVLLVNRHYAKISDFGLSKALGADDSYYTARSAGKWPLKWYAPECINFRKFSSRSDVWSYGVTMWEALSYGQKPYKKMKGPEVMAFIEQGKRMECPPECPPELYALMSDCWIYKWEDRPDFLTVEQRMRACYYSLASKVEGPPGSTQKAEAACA

[5] = biological target: Ribosomal protein S6 kinase alpha-2 (Homo sapiens) (UniProt Q15349); experiment: Inhibition of human RSK3 at 1.82 nM by HotSpot assay relative to control
Chain of Ribosomal protein S6 kinase alpha-2 (Homo sapiens) (Q15349 whole entry): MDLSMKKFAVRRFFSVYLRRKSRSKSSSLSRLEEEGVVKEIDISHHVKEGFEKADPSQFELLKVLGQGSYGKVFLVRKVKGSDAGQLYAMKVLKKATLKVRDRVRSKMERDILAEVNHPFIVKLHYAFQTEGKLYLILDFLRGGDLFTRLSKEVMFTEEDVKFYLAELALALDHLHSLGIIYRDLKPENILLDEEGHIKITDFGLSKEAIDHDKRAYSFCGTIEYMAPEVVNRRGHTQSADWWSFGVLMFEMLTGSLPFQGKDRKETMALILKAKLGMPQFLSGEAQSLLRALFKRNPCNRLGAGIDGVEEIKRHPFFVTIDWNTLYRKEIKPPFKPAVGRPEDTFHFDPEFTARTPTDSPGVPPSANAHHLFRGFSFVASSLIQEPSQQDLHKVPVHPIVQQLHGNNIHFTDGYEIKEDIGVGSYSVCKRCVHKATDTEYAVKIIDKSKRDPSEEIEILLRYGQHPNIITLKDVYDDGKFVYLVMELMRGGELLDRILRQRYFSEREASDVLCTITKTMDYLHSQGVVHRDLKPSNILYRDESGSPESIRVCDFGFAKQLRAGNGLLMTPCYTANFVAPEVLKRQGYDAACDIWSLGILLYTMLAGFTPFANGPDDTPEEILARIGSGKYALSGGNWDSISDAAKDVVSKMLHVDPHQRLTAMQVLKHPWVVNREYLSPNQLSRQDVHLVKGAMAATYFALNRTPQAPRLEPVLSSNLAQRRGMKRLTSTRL

[6] = biological target: Serine/threonine-protein kinase Nek7 (Homo sapiens) (UniProt Q8TDX7); experiment: Inhibition of human NEK7 at 1.82 nM by HotSpot assay relative to control
Chain of Serine/threonine-protein kinase Nek7 (Homo sapiens) (Q8TDX7 whole entry, looked up): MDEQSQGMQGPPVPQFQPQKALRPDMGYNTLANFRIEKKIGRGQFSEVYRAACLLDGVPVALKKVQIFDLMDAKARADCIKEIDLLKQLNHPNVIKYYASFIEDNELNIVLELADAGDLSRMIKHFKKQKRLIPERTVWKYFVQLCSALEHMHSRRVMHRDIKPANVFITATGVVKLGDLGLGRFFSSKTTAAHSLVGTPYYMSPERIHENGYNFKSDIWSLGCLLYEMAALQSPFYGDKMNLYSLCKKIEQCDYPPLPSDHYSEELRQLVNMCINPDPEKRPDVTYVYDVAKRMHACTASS

[7] = biological target: Calcium/calmodulin-dependent protein kinase type 1D (Homo sapiens) (UniProt Q8IU85); experiment: Inhibition of human CAMK1d at 1.82 nM by HotSpot assay relative to control
Chain of Calcium/calmodulin-dependent protein kinase type 1D (Homo sapiens) (Q8IU85 whole entry, looked up): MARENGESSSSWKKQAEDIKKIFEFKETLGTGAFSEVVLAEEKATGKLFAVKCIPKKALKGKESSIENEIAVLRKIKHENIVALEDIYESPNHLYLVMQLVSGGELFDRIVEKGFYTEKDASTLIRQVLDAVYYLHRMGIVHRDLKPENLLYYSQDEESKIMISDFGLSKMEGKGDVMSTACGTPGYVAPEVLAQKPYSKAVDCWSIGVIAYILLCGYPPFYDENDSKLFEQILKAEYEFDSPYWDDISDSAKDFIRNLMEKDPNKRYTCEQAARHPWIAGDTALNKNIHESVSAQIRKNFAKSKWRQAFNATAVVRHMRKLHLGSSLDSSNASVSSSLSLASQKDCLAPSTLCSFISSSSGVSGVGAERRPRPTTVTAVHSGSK

[8] = biological target: SRSF protein kinase 2 (Homo sapiens) (UniProt P78362); experiment: Inhibition of human SRPK2 at 1.82 nM by HotSpot assay relative to control
Chain of SRSF protein kinase 2 (Homo sapiens) (P78362 whole entry, looked up): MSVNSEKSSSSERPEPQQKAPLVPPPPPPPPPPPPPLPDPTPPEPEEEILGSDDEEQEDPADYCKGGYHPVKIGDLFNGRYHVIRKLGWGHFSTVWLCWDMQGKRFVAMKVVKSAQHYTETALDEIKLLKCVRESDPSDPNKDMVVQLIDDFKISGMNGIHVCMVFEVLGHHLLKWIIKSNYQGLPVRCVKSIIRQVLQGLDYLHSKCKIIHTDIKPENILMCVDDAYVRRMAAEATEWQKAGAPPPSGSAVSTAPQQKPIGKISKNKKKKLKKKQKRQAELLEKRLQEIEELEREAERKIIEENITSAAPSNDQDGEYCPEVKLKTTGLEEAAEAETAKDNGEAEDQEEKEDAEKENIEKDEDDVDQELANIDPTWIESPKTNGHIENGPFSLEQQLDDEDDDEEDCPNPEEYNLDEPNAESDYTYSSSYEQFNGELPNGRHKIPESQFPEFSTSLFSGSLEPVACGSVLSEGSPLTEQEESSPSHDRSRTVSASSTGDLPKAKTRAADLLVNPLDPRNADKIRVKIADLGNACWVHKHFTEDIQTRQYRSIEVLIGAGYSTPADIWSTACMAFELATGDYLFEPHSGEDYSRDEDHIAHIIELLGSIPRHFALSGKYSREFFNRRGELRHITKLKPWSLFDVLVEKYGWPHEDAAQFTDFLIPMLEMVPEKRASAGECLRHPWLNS

[9] = biological target: T3, Dual specificity tyrosine-phosphorylation-regulated kinase 3 (Homo sapiens) (UniProt O43781); experiment: Inhibition of human DYRK3 at 1.82 nM by HotSpot assay relative to control
T3 sequence (whole entry): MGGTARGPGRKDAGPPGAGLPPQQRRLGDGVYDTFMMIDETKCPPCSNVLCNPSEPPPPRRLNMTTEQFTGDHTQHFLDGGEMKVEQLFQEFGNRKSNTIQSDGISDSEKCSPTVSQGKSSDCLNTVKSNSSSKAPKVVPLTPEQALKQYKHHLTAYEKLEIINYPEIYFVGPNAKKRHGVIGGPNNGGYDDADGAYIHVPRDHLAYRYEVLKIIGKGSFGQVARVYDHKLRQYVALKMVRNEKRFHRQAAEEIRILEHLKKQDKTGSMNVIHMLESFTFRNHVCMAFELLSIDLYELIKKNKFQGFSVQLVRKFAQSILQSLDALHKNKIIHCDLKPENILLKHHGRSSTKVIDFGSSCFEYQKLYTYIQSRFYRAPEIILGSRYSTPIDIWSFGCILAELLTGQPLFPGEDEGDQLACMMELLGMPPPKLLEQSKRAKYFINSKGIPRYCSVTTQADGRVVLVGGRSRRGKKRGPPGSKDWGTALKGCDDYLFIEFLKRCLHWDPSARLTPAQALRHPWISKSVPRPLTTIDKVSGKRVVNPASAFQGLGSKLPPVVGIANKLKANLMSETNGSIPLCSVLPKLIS

[10] = biological target: T4, Rhodopsin kinase GRK7 (Homo sapiens) (UniProt Q8WTQ7); experiment: Inhibition of human GRK7 at 1.82 nM by HotSpot assay relative to control
T4 sequence (whole entry): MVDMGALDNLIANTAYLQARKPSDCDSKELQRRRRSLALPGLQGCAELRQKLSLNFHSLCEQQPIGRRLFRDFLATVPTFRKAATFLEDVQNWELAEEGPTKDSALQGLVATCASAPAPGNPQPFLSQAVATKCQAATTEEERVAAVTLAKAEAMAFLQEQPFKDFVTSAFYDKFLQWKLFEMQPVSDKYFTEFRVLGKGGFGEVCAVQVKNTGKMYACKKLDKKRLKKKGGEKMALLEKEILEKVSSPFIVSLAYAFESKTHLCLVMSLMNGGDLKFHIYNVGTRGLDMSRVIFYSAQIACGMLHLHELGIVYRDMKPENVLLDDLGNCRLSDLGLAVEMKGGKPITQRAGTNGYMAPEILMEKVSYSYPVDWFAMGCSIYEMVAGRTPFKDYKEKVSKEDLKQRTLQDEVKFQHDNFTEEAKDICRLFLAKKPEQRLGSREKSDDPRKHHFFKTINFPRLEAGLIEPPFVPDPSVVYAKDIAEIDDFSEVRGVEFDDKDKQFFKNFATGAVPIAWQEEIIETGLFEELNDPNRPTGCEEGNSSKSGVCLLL

inhibition [1] [%]	inhibition [2] [%]	inhibition [3] [%]	inhibition [4] [%]	inhibition [5] [%]	inhibition [6] [%]	inhibition [7] [%]	inhibition [8] [%]	inhibition [9] [%]	inhibition [10] [%]	Compound
10.2	4.4	0.67								C[C@]1(O)C[C@@H](c2nc(-c3ccc4ccc(-c5ccccc5)nc4c3)c3c(N)nccn32)C1
			-2.24	-2.19	-3.98	-3.77	-2.03	8.06	4.43	C[C@@]1(C(=O)Nc2ccc(F)nc2)CCCN1c1nc(Nc2cc(C3CC3)n[nH]2)c2cccn2n1

From ChEMBL document CHEMBL5653615 (J Biol Chem, 2013)
